According to patent US12421254B2, “KRAS modulators and uses thereof” (Quanta Therapeutics, Inc., priority 2023, dated 2025):

Assays:
[1] = molecular target: GST-tagged KRAS-G12V (2-169) (Homo sapiens, UniProt P01116, G12V); assay: Nucleotide exchange assay (NEA), SOS-mediated, HTRF, KRAS G12V; type: biochemical; conditions: Table 4; IC50 extracted at 90 min; 80 nM SOS
How it was run: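 Exchange onto fluorescent GTP-DY-647P1 (150 nM final) catalysed by 80 nM SOS1cat was followed by Tb-anti-GST HTRF at RT for up to 90 min, after 1 h compound pre-incubation with 0.25 nM GST-tagged KRAS-G12V (2-169), pH 7.3. DMSO = 0%, no-SOS blank = 100%; 4-parameter IC50 taken at 90 min.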

[2] = molecular target: GST-tagged KRAS-G12D (2-169) (Homo sapiens, UniProt P01116, G12D); assay: Nucleotide exchange assay (NEA), SOS-mediated, HTRF, KRAS G12D; type: biochemical; conditions: Table 4; IC50 extracted at 30 min; 20 nM SOScat; read-out: NEA G12D IC50
Chain of GST-tagged KRAS-G12D (2-169) (P01116 2-169 isoform P01116-2 G12D): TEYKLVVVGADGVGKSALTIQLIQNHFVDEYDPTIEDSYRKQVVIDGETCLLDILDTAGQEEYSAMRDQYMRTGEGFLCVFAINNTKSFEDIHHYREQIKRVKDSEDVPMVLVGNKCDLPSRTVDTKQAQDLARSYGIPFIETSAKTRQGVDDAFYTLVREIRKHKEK
How it was run: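 SOS1cat-driven loading of fluorescent GTP-DY-647P1 (150 nM) onto GST-KRAS-G12D (2-169, 0.25 nM) read by time-resolved FRET; SOScat 20 nM, compound preincubated with KRAS 1 h at RT. Signal blanked to no-SOS reactions, normalized to DMSO; IC50 fitted from the 30-min read.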

[3] = system: phospho-ERK in SW620 (KRAS-G12V) cells; assay: pERK In Cell Western (ICW) assay (Method B), SW620; type: cell-based; conditions: Homo sapiens, SW-620, 3 h, Table 4
Experimental: pERK ICW is a high throughput screening assay to evaluate the cellular potency of mutant KRAS small molecule inhibitors. KRAS mutant cell lines AGS, GP2D (KRAS-G12D) as well as SW620 (KRAS-G12V) were purchased from ATCC and maintained respectively in RPMI/DMEM/RPMI medium supplemented with 10% fetal bovine serum.
Cells grown in exponential phase were trypsinized, resuspended in fresh media, and viable cells were counted using a cell counter with Trypan Blue (BioRad TC20). Cells were seeded into 384-well plate (Greiner 781091) at density of 5,000 cells/well for AGS and 10,000 cells/well for GP2D/SW620 and allowed to grow overnight in a 37° C. CO2 incubator. The next day, compounds were dispensed into wells with a ½ log, 9-point serial dilution using a Tecan D300e dispenser and incubated for 3 hours in a 37° C. CO2 incubator. Cells were then fixed with paraformaldehyde (Electron Microscopy Sciences, 15710, 4% final concentration) for 30 min, permeabilized with wash buffer (1×PBS+0.1% Triton X-100) for 30 min and blocked with Odyssey blocking buffer (Li—COR 927-70001) for 1 hour, all at room temperature (RT). Phospho-ERK antibody (CST 4370L) was diluted 1:500 in Odyssey T20 (PBS) antibody diluent (Li—COR 927-75001) and incubated with cells overnight at 4° C. The next day, plates were washed 5× with wash buffer, incubated with IRDye 800 CW, Goat anti-Rabbit secondary antibody (Li—COR 926-32211, 1:800) and DRAQ5 (CST 4084L, 1:5,000) diluted in Odyssey T20 (PBS) antibody diluent for 1 hour, washed 5×, and imaged on an Odyssey CLx imaging system.
For data analysis, signal intensities from 800 (phosphor-ERK) and 700 (DRAQ5) channels were extracted, and phospho-ERK signals were normalized to DRAQ5 signals for each well and percent of blank control values were computed. Data were then imported into Graphpad Prism to compute half-maximal inhibitory concentrations (IC50) using a 4-parameter variable slope model. Z-factor for each plate was computed from signals derived from wells treated with either DMSO or 5 μM of control compound. AGS pERK ICW (Method B) IC50 (uM) values of selected compounds are depicted in Table 2 with compounds having a value ≥0.001 uM to 0.01 uM as ++++; ≥0.01 uM to 0.1 uM as +++; ≥0.1 uM to 1 uM as ++; ≥1 uM to 10 uM as + and ≥10 uM as NA.

Chain of GST-tagged KRAS-G12V (2-169) (P01116 2-169 isoform P01116-2 G12V): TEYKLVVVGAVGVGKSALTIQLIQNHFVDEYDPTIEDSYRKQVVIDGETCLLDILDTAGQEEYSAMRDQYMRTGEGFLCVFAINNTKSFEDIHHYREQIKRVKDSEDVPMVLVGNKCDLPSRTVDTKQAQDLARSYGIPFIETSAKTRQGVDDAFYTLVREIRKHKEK

Row | Compound | IC50 [1] [nM] | IC50 [2] [nM] | IC50 [3] [nM]
1 | CCN(CC#N)c1nc(OC[C@@]23CCCN2C[C@H](F)C3)nc(N2CC3(C2)SCc2sc(N)c(C#N)c23)n1 [Compound 237, 2-amino-1′-[4-[cyanomethyl(ethyl)amino]-6-[[(2R,8S)-2-fluoro-1,2,3,5,6,7-hexahydropyrrolizin-8-yl]methoxy]-1,3,5-triazin-2-yl]spiro[6H-thieno[3,4-b]thiophene-4,3′-azetidine]-3-carbonitrile] | < 10 | < 10 | 10 to 100
2 | CCN(c1nc(OC[C@@]23CCCN2C[C@H](F)C3)nc(N2CC3(C2)SCc2sc(N)c(C#N)c23)n1)C1(C#N)CC1 [Compound 238, 2-amino-1′-[4-[(1-cyanocyclopropyl)-ethyl-amino]-6-[[(2R,8S)-2-fluoro-1,2,3,5,6,7-hexahydropyrrolizin-8-yl]methoxy]-1,3,5-triazin-2-yl]spiro[6H-thieno[3,4-b]thiophene-4,3′-azetidine]-3-carbonitrile] | < 10 | < 10 | 10 to 100
3 | N#Cc1c(N)sc2c1C1(CN(c3nc(OC[C@@]45CCCN4C[C@H](F)C5)nc(N(CCO)CC4(C#N)CC4)n3)C1)SC2 [Compound 239, 2-amino-1′-[4-[(1-cyanocyclopropyl)methyl-(2-hydroxyethyl)amino]-6-[[(2R,8S)-2-fluoro-1,2,3,5,6,7-hexahydropyrrolizin-8-yl]methoxy]-1,3,5-triazin-2-yl]spiro[6H-thieno[2,3-c]thiophene-4,3′-azetidine]-3-carbonitrile] | < 10 | < 10 | 100 to 1000
4 | CCN(CC1(C#N)CC1)c1nc(OC[C@@]23CCCN2C[C@H](F)C3)nc(N2CC3(C2)SCc2sc(N)c(C#N)c23)n1 [Compound 241, 2-amino-1′-[4-[(1-cyanocyclopropyl)methyl-ethyl-amino]-6-[[(2R,8S)-2-fluoro-1,2,3,5,6,7-hexahydropyrrolizin-8-yl]methoxy]-1,3,5-triazin-2-yl]spiro[6H-thieno[2,3-c]thiophene-4,3′-azetidine]-3-carbonitrile] | < 10 | < 10 | 100 to 1000
5 | N#CCN(CC(F)F)c1nc(OC[C@@]23CCCN2C[C@H](F)C3)nc(N2CC3(C2)SCc2sc(N)c(C#N)c23)n1 [Compound 242, 2-amino-1′-[4-[cyanomethyl(2,2-difluoroethyl)amino]-6-[[(2R,8S)-2-fluoro-1,2,3,5,6,7-hexahydropyrrolizin-8-yl]methoxy]-1,3,5-triazin-2-yl]spiro[6H-thieno[3,4-b]thiophene-4,3′-azetidine]-3-carbonitrile] | < 10 | < 10 | 10 to 100
6 | C#CCN(CC#N)c1nc(OC[C@@]23CCCN2C[C@H](F)C3)nc(N2CC3(C2)SCc2sc(N)c(C#N)c23)n1 [Compound 243, 2-amino-1′-[4-[cyanomethyl(prop-2-ynyl)amino]-6-[[(2R,8S)-2-fluoro-1,2,3,5,6,7-hexahydropyrrolizin-8-yl]methoxy]-1,3,5-triazin-2-yl]spiro[6H-thieno[3,4-b]thiophene-4,3′-azetidine]-3-carbonitrile] | < 10 | < 10 | 100 to 1000
7 | C#CC(C)N(CC#N)c1nc(OC[C@@]23CCCN2C[C@H](F)C3)nc(N2CC3(C2)SCc2sc(N)c(C#N)c23)n1 (stereo partly drawn) [Compound 244, 2-amino-1′-[4-[cyanomethyl(1-methylprop-2-ynyl)amino]-6-[[(2R,8S)-2-fluoro-1,2,3,5,6,7-hexahydropyrrolizin-8-yl]methoxy]-1,3,5-triazin-2-yl]spiro[6H-thieno[3,4-b]thiophene-4,3′-azetidine]-3-carbonitrile] | < 10 | < 10 | 100 to 1000
8 | N#CCN(Cc1c[nH]nn1)c1nc(OC[C@@]23CCCN2C[C@H](F)C3)nc(N2CC3(C2)SCc2sc(N)c(C#N)c23)n1 [Compound 245, 2-amino-1′-[4-[cyanomethyl(1H-triazol-4-ylmethyl)amino]-6-[[(2R,8S)-2-fluoro-1,2,3,5,6,7-hexahydropyrrolizin-8-yl]methoxy]-1,3,5-triazin-2-yl]spiro[6H-thieno[3,4-b]thiophene-4,3′-azetidine]-3-carbonitrile] | < 10 | < 10 | 1000 to 20000
9 | C[C@H](c1cccnc1N)N(CC#N)c1nc(OC[C@@]23CCCN2C[C@H](F)C3)nc(N2CC3(C2)SCc2sc(N)c(C#N)c23)n1 [Compound 246, 2′-amino-1-(4-(((R)-1-(2-aminopyridin-3-yl)ethyl)(cyanomethyl)amino)-6-(((2R,7aS)-2-fluorotetrahydro-TH-pyrrolizin-7a(5H)-yl)methoxy)-1,3,5-triazin-2-yl)-6′H-spiro[azetidine-3,4′-thieno[3,4-b]thiophene]-3′-carbonitrile] | < 10 | < 10 | < 10
10 | C#CCN(c1nc(OC[C@@]23CCCN2C[C@H](F)C3)nc(N2CC3(C2)SCc2sc(N)c(C#N)c23)n1)C1(C#N)CC1 [Compound 247, 2-amino-1′-[4-[(1-cyanocyclopropyl)-prop-2-ynyl-amino]-6-[[(2R,8S)-2-fluoro-1,2,3,5,6,7-hexahydropyrrolizin-8-yl]methoxy]-1,3,5-triazin-2-yl]spiro[6H-thieno[3,4-b]thiophene-4,3′-azetidine]-3-carbonitrile] | < 10 | < 10 | 100 to 1000
11 | CC(CC#N)N(C)c1nc(OC[C@@]23CCCN2C[C@H](F)C3)nc(N2CC3(C2)SCc2sc(N)c(C#N)c23)n1 (stereo partly drawn) [Compound 249, 2-amino-1′-[4-[(2-cyano-1-methyl-ethyl)-methyl-amino]-6-[[(2R,8S)-2-fluoro-1,2,3,5,6,7-hexahydropyrrolizin-8-yl]methoxy]-1,3,5-triazin-2-yl]spiro[6H-thieno[2,3-c]thiophene-4,3′-azetidine]-3-carbonitrile] | < 10 | < 10 | 1000 to 20000
12 | CC(c1c[nH]nn1)N(CC#N)c1nc(OC[C@@]23CCCN2C[C@H](F)C3)nc(N2CC3(C2)SCc2sc(N)c(C#N)c23)n1 (stereo partly drawn) [Compound 250, 2-amino-1′-[4-[cyanomethyl-[1-(1H-triazol-4-yl)ethyl]amino]-6-[[(2R,8S)-2-fluoro-1,2,3,5,6,7-hexahydropyrrolizin-8-yl]methoxy]-1,3,5-triazin-2-yl]spiro[6H-thieno[3,4-b]thiophene-4,3′-azetidine]-3-carbonitrile] | < 10 | < 10 | 100 to 1000
13 | N#CCN(c1nc(OC[C@@]23CCCN2C[C@H](F)C3)nc(N2CC3(C2)SCc2sc(N)c(C#N)c23)n1)C1(C#N)CC1 [Compound 251, 2-amino-1′-[4-[(1-cyanocyclopropyl)-(cyanomethyl)amino]-6-[[(2R,8S)-2-fluoro-1,2,3,5,6,7-hexahydropyrrolizin-8-yl]methoxy]-1,3,5-triazin-2-yl]spiro[6H-thieno[3,4-b]thiophene-4,3′-azetidine]-3-carbonitrile] | < 10 | < 10 | 10 to 100
14 | CCN(c1nc(OC[C@@]23CCCN2C[C@H](F)C3)nc(N2CC3(C2)SCc2sc(N)c(C#N)c23)n1)C(C)CC#N (stereo partly drawn) [Compound 254, 2-amino-1′-[4-[(2-cyano-1-methyl-ethyl)-ethyl-amino]-6-[[(2R,8S)-2-fluoro-1,2,3,5,6,7-hexahydropyrrolizin-8-yl]methoxy]-1,3,5-triazin-2-yl]spiro[6H-thieno[3,4-b]thiophene-4,3′-azetidine]-3-carbonitrile; formic acid] | < 10 | < 10 | 100 to 1000
